Measurements reported in patent publication US8349850B2, “Heterocyclic compounds and uses thereof in the treatment of sexual disorders” (ATIR Holding S.A., priority 2006, dated 2013).

Columns and labels:
[1] = tested on: D2 SHORT and D4.4 type dopamine receptors; experiment: D4/D2 binding ratio from competitive binding to D4.4 and D2 short receptors; set-up: species or system human; conditions: ratio of concentrations required to inhibit 50% of radioligand binding for each receptor
Description: (§1) Compounds were assayed for competitive binding to D2 SHORT and D4.4 type dopamine receptors. Both receptor types are expressed as human recombinant proteins in CHO cells, as described, for example, in Jarvis et al. (1973); Van Tol et al. (1991) and Van Tol et al. (1992).
Determination of binding to D2 short receptor was performed using [^3H]-spiperone, a D2 receptor ligand (Gundlach et al., 1984), as a radioligand (20-60 Ci/mmol, 0.2 nM) in the presence of various concentrations of the tested compound. Reactions were carried out in 50 mM TRIS-HCl (pH 7.4) containing 120 mM NaCl, 5 mM KCl, 5 mM MgCl2 and 1 mM EDTA, for 60 minutes at 25° C. The reaction was terminated by rapid vacuum filtration onto glass fiber filters. Radioactivity trapped onto the filters was determined (counted) and compared to control values in order to accurately evaluate any interaction of the test compound(s) with the cloned dopamine D2 short binding site.
(§2) Determination of binding to D4.4 receptor was performed using [^3H]-YM-09151-2 (70-87 Ci/mmol, 0.3 nM), as a radioligand, in with the presence of various concentrations of the tested compound. Reactions were carried out in 50 mM TRIS-HCl (pH 7.4) containing 5 mM MgCl2, 5 mM EDTA, 5 mM KCl and 1.5 mM CaCl2, for 60 minutes at 22° C. The reaction was terminated by rapid vacuum filtration onto glass fiber filters. Radioactivity trapped onto the filters was determined (counted) and compared to control values in order to accurately evaluate any interaction of the tested compound(s) with the cloned dopamine D4.4 binding site.
D4/D2 binding ratios were determined based on the ratio of the concentration of each tested compound required to inhibit 50% of the radioligand binding for each receptor.

[2] = target: T1, Human recombinant dopamine D4.4 receptors expressed in CHO-K1 cells (Homo sapiens, UniProt P21917); experiment: GTPgammaS Cellular Assay (agonist response); type: biochemical; conditions: relative to the 1 μM dopamine response; tested at 5, 1, 0.1, 0.01 μM (concentration of tabulated value not given); na = no activity; read-out: D4.4(h) GTPgammaS^35 Cellular Assay, Agonist Response, %
T1 construct: expressed in transfected cells; host or cells: CHO-K1 cells (membranes)
T1 sequence (P21917 1-419): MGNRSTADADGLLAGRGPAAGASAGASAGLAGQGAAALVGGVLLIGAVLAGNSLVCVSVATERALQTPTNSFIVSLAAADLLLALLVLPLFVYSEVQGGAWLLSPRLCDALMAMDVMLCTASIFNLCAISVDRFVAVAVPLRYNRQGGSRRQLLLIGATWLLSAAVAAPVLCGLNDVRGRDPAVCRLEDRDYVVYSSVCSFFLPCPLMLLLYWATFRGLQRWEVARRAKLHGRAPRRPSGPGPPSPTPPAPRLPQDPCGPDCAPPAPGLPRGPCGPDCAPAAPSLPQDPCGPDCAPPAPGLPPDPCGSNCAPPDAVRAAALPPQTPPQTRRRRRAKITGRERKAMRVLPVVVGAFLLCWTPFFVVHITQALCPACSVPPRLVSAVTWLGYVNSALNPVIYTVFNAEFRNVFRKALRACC
Description: Human recombinant dopamine D4.4 receptors expressed in CHO-K1 cells were used. The tested compound was pre-incubated with 0.1 mg/ml membranes and 10 μM GDP for 20 minutes at 25° C. in modified HEPES buffer (pH 7.4). SPA beads were then added and the mixture was maintained for additional 60 minutes at 30° C. The reaction was initiated by the addition of 0.3 nM [^35S]GTPγS, and the obtained reaction mixture were incubated for 30 minutes. Test compound-induced increase of [^35S]GTPγS binding by 50 percent or more (≧50%) relative to the 1 μM dopamine response indicated dopamine D4.4 agonist activity. Test compound-induced inhibition of 1 μM dopamine-induced increase of [^35S]GTPγS binding response by 50 percent or more (≧50%) indicated receptor antagonist activity. Compounds were tested at concentrations of 5, 1, 0.1, 0.01 μM.

D4.4 receptor = target: T2, D4.4 receptor (Homo sapiens, UniProt P21917); experiment: Competitive binding to D4.4 dopamine receptor ([3H]-YM-09151-2 radioligand); conditions: 5 mcM compound; human recombinant D4.4 in CHO cells; na = no activity
T2 construct: expressed in transfected cells; host or cells: CHO cells
T2 sequence (P21917 1-419): T1 sequence (P21917 1-419)
Description: as §1, §2

[3] = target: T3, PDE5 partially purified from human platelets (Homo sapiens, UniProt O76074); experiment: Phosphodiesterase Type 5 (PDE5) Inhibition; type: biochemical; conditions: for inhibition at 50 µM: 50 mcM compound, 1 μM cGMP
T3 construct: PDE5 partially purified from human platelets was used; from tissue; host or cells: human platelets
Description: Phosphodiesterase type 5 (PDE5) catalyzes the conversion of cAMP or cGMP to their respective monophosphate forms. PDE5 has a high Km for cAMP and a low Km for cGMP, is insensitive to Ca^2+/calmodulin or cGMP regulation, and is relatively sensitive to inhibitors such as dipyridamol and zaprinast.
PDE5 partially purified from human platelets was used. The tested compound (at a concentration of 0.1, 1, 20 or 50 μM) and/or vehicle was incubated with 3.5 μg enzyme and 1 μM cGMP containing 0.01 μM [^3H]cGMP in Tris buffer pH 7.5 for 20 minutes at 30° C. Since enzyme activity may change from lot to lot, the concentration used was adjusted if required.
The reaction was terminated by boiling the reaction mixture for 2 minutes. The obtained GMP was then converted to guanosine by addition of 10 mg/ml snake venom nucleotidase and further incubation at 30° C. for 10 minutes. Unhydrolyzed cGMP was bound to AG1-X2 resin, and remaining [^3H]Guanosine in the aqueous phase was quantitated by scintillation counting.

[4] = 'active' = observed activity not quantitated

Row | D4/D2 Selectivity [1] | Emax [2] [%] | inhibition at 5 µM (D4.4 receptor) [%] | IC50 ([3]; 'active' = observed activity not quantitated, read-out: PDE5 IC50, 10^−6 M) [µM] | inhibition at 50 µM [3] [%] | PDE5 IC50, 10^−6 M [3, 4] | SMILES | exhibit both PDE5 inhibition and D4 agonist activity (dual activity) ([3]; referring to Table 2 (PDE5 and D4 assays))
1 | >100 | 54 | 57 |  |  |  | O=c1[nH]c(CN2CCN(c3ccccc3Cl)CC2)nc2ccccc12 [Compound 109, 2-{[4-(2-chlorophenyl)piperazin-1-yl]methyl}quinazolin-4(3H)-one] | 
2 | >500 | 69 | 52 |  |  |  | N#Cc1ccccc1N1CCN(Cc2nc3ccccc3c(=O)[nH]2)CC1 [Compound 110, 2-{4-[(4-oxo-3,4-dihydroquinazolin-2-yl)methyl]piperazin-1-yl}benzonitrile] | 
3 | >70 | 44 | 88 |  |  |  | COc1ccccc1N1CCN(Cc2nc3ccccc3c(=O)[nH]2)CC1 [Compound 107, 2-{[4-(2-methoxyphenyl)piperazin-1-yl]methyl}quinazolin-4(3H)-one] | 
4 | >100 | 62 | 59 |  |  |  | O=c1[nH]c(CN2CCN(c3ccccc3F)CC2)nc2ccccc12 [Compound 104, 2-{[4-(2-fluorophenyl)piperazin-1-yl]methyl}quinazolin-4(3H)-one] | 
5 | >100 | 49 | 93 |  |  |  | CCOc1ccccc1N1CCN(Cc2nc3ccccc3c(=O)[nH]2)CC1 [Compound 108, 2-{[4-(2-ethoxyphenyl)piperazin-1-yl]methyl}quinazolin-4(3H)-one] | 
6 | ~50 | 42 | 91 | 20 |  |  | O=c1[nH]c(CN2CCN(c3cccc(O)c3)CC2)nc2ccccc12 [Compound 113, 2-{[4-(3-hydroxyphenyl)piperazin-1-yl]methyl}quinazolin-4(3H)-one] | both PDE5 inhibition and D4 agonist activity
7 |  |  | 91 |  | 25 | active | COc1cc2nc(CN3CCN(c4cccc(O)c4)CC3)[nH]c(=O)c2cc1OC [Compound B-4, 2-((4-(3-hydroxyphenyl)piperazin-1-yl)methyl)-6,7-dimethoxyquinazolin-4(3H)-one] | 
8 |  |  | 11 |  | 31 | active | CCCn1cnc2nc(CN3CCN(c4cccc(O)c4)CC3)[nH]c(=O)c21 [Compound B-33, 2-((4-(3-hydroxyphenyl)piperazin-1-yl)methyl)-7-propyl-1H-purin-6(7H)-one] | 

Row | SMILES | D4/D2 Selectivity [1] | Emax [2] [%] | inhibition at 5 µM (D4.4 receptor) [%] | IC50 ([3]; 'active' = observed activity not quantitated, read-out: PDE5 IC50, 10^−6 M) [µM] | inhibition at 50 µM [3] [%] | PDE5 IC50, 10^−6 M [3, 4] | exhibit both PDE5 inhibition and D4 agonist activity (dual activity) ([3]; referring to Table 2 (PDE5 and D4 assays))
9 | O=c1cc(CN2CC=C(c3ccccc3)CC2)nc2ccccn12 [Compound 301, 2-[(4-phenyl-3,6-dihydropyridin-1(2H)-yl)methyl]-4H-pyrido[1,2-a]pyrimidin-4-one] | ~10 | 69 | 59 |  |  |  | 
10 | O=c1[nH]c(CN2CC=C(c3ccccc3)CC2)nc2ccccc12 [Compound 124, 2-[(4-phenyl-3,6-dihydropyridin-1(2H)-yl)methyl]quinazolin-4(3H)-one] | ~85 | 57 | 73 |  |  |  | 
11 | O=c1cc(CN2CC=C(c3ccccc3)CC2)oc2ccccc12 [Compound 201, 2-[(4-phenyl-3,6-dihydropyridin-1(2H)-yl)methyl]-4H-chromen-4-one] | ~10 | 75 | 72 |  |  |  | 
